Measured values: ChEMBL document CHEMBL3044776, “Microwave-assisted synthesis, pharmacological evaluation, and QSAR studies of 1,3-diaryl-2-propen-1-ones” (Med Chem Res, 2012)

Tests used:
Mus musculus [1] = assay: Analgesic activity in Mus musculus Swiss albino (mouse) assessed as inhibition of acetic acid-induced writhing at 160 mg/kg, po administered 30 min prior challenge measured after 5 min of challenge for next 30 min relative to control; format: functional
Mus musculus [2] = assay: Toxicity in Mus musculus Swiss albino (mouse) assessed as abnormal changes in fur at 500 to 2000 mg/kg, po measured after 14 days; format: organism-based; parameters: dose 500-2000 mg/kg, route oral; details: in vivo, 336 h
Mus musculus [3] = assay: Toxicity in Mus musculus Swiss albino (mouse) assessed as abnormal changes in skin at 500 to 2000 mg/kg, po measured after 14 days; format: organism-based; parameters: dose 500-2000 mg/kg, route oral; details: in vivo, 336 h
Mus musculus [4] = assay: Toxicity in Mus musculus Swiss albino (mouse) assessed as changes in behavioral pattern at 500 to 2000 mg/kg, po measured after 14 days; format: organism-based; parameters: dose 500-2000 mg/kg, route oral; details: in vivo, 336 h
Mus musculus [5] = assay: Toxicity in Mus musculus Swiss albino (mouse) assessed as abnormal changes in eyes at 500 to 2000 mg/kg, po measured after 14 days; format: organism-based; parameters: dose 500-2000 mg/kg, route oral; details: in vivo, 336 h
Mus musculus [6] = assay: Toxicity in Mus musculus Swiss albino (mouse) assessed as mortality at 500 to 2000 mg/kg, po measured after 14 days; format: organism-based; parameters: dose 500-2000 mg/kg, route oral; details: in vivo, 336 h
Rattus norvegicus [7] = assay: Anti-inflammatory activity in Rattus norvegicus Wistar (rat) assessed as inhibition of carrageenan-induced paw edema at 160 mg/kg, po administered 30 min prior to carrageenan challenge measured at 4 hr relative to control; format: functional
Rattus norvegicus [8] = assay: Anti-inflammatory activity in Rattus norvegicus Wistar (rat) assessed as inhibition of carrageenan-induced paw edema at 10 mg/kg, po administered 30 min prior to carrageenan challenge measured at 4 hr relative to control; format: functional
Mus musculus [9] = assay: Analgesic activity in Mus musculus Swiss albino (mouse) assessed as inhibition of acetic acid-induced writhing at 10 mg/kg, po administered 30 min prior challenge measured after 5 min of challenge for next 30 min relative to control; format: functional

SMILES	inhibition in vivo at 160 mg/kg (Mus musculus [1]) [%]	Activity (Mus musculus [2])	Activity (Mus musculus [3])	Activity (Mus musculus [4])	Activity (Mus musculus [5])	Activity (Mus musculus [6])	inhibition in vivo at 160 mg/kg (Rattus norvegicus [7]) [%]	inhibition in vivo at 10 mg/kg (Rattus norvegicus [8]) [%]	inhibition in vivo at 10 mg/kg (Mus musculus [9]) [%]
O=C(/C=C/c1ccccc1[N+](=O)[O-])c1ccc(-c2ccccc2)cc1	40.3	Non-toxic	Non-toxic	Non-toxic	Non-toxic	Non-toxic	45.2		
COc1ccc(C(=O)/C=C/c2ccccc2)cc1 [4'-METHOXYCHALCONE]	25.7	Non-toxic	Non-toxic	Non-toxic	Non-toxic	Non-toxic	69.8		
COc1ccc(C(=O)/C=C/c2ccc(O)c(OC)c2)cc1	89.6	Non-toxic	Non-toxic	Non-toxic	Non-toxic	Non-toxic	80		
COc1ccc(/C=C/C(=O)c2ccc(Br)cc2)cc1	70.8	Non-toxic	Non-toxic	Non-toxic	Non-toxic	Non-toxic	67.7		
COc1ccc(/C=C/C(=O)c2ccc(-c3ccccc3)cc2)cc1	83.3	Non-toxic	Non-toxic	Non-toxic	Non-toxic	Non-toxic	74.8		
COc1ccc2c(c1)c(CC(=O)O)c(C)n2C(=O)c1ccc(Cl)cc1 [INDOMETHACIN]								79.3	
CC(=O)Oc1ccccc1C(=O)O [ASPIRIN]									88.9
O=C(/C=C/c1ccoc1)c1ccc(-c2ccccc2)cc1	51.4	Non-toxic	Non-toxic	Non-toxic	Non-toxic	Non-toxic	52.9		
O=C(/C=C/c1ccccc1O)c1ccc(-c2ccccc2)cc1	75.7	Non-toxic	Non-toxic	Non-toxic	Non-toxic	Non-toxic	80.6		
O=C(/C=C/c1ccc(O)cc1)c1ccc(-c2ccccc2)cc1	66.7	Non-toxic	Non-toxic	Non-toxic	Non-toxic	Non-toxic	74.8		
O=C(/C=C/c1ccc(Cl)cc1)c1ccc(-c2ccccc2)cc1	74.3	Non-toxic	Non-toxic	Non-toxic	Non-toxic	Non-toxic	52.9		
CN(C)c1ccc(/C=C/C(=O)c2ccc(-c3ccccc3)cc2)cc1	72.9	Non-toxic	Non-toxic	Non-toxic	Non-toxic	Non-toxic	58.7		
COc1cc(/C=C/C(=O)c2ccc(-c3ccccc3)cc2)cc(OC)c1OC	85.4	Non-toxic	Non-toxic	Non-toxic	Non-toxic	Non-toxic	78.7		
COc1cc(/C=C/C(=O)c2ccc(-c3ccccc3)cc2)cc(OC)c1	84.7	Non-toxic	Non-toxic	Non-toxic	Non-toxic	Non-toxic	63.2		
COc1ccc(C(=O)/C=C/c2ccc(Cl)cc2)cc1	48.6	Non-toxic	Non-toxic	Non-toxic	Non-toxic	Non-toxic	77.6		
CN(C)c1ccc(/C=C/C(=O)c2ccc(Br)cc2)cc1	31.9	Non-toxic	Non-toxic	Non-toxic	Non-toxic	Non-toxic	54.5		
COc1ccc(C(=O)/C=C/c2ccccc2O)cc1	50.7	Non-toxic	Non-toxic	Non-toxic	Non-toxic	Non-toxic	76.1		
COc1ccc(C(=O)/C=C/c2ccc(N(C)C)cc2)cc1	47.9	Non-toxic	Non-toxic	Non-toxic	Non-toxic	Non-toxic	69.8		
O=C(/C=C/c1ccc(F)cc1)c1ccc(-c2ccccc2)cc1	56.5	Non-toxic	Non-toxic	Non-toxic	Non-toxic	Non-toxic	76.8		
O=C(/C=C/c1ccccc1)c1ccc(-c2ccccc2)cc1	71.5	Non-toxic	Non-toxic	Non-toxic	Non-toxic	Non-toxic	68.4		
COc1ccc(/C=C/C(=O)c2ccc(OC)cc2)cc1 [4,4'-DIMETHOXYCHALCONE]	87.5	Non-toxic	Non-toxic	Non-toxic	Non-toxic	Non-toxic	72.9		
O=C(/C=C/c1ccccc1Cl)c1ccc(-c2ccccc2)cc1	85.1	Non-toxic	Non-toxic	Non-toxic	Non-toxic	Non-toxic	61.9		
